Results from patent US9206219B2, “17-hydroxy-17-pentafluorethyl-estra-4,9(10)-dien-11-aryl derivatives, methods for the production thereof and the use thereof for treating diseases” (Bayer Intellectual Property GmbH, priority 2009, dated 2015).

Legend:
[1] = target: T1, human progesterone receptor A (Homo sapiens, UniProt P06401); assay: Progesterone receptor-antagonistic action in stably transfected SK-N-MC cells, MMTV-LUC reporter (PR-A); type: cell-based; conditions: antagonistic potency vs 0.1 nmol/l promegestone, 24 hours
T1 construct: expressed in transfected cells; host or cells: SK-N-MC human neuroblastoma cells, stably transfected with pRChPR-A-neo and pMMTV-LUC
T1 sequence (P06401 1-769 isoform P06401-2): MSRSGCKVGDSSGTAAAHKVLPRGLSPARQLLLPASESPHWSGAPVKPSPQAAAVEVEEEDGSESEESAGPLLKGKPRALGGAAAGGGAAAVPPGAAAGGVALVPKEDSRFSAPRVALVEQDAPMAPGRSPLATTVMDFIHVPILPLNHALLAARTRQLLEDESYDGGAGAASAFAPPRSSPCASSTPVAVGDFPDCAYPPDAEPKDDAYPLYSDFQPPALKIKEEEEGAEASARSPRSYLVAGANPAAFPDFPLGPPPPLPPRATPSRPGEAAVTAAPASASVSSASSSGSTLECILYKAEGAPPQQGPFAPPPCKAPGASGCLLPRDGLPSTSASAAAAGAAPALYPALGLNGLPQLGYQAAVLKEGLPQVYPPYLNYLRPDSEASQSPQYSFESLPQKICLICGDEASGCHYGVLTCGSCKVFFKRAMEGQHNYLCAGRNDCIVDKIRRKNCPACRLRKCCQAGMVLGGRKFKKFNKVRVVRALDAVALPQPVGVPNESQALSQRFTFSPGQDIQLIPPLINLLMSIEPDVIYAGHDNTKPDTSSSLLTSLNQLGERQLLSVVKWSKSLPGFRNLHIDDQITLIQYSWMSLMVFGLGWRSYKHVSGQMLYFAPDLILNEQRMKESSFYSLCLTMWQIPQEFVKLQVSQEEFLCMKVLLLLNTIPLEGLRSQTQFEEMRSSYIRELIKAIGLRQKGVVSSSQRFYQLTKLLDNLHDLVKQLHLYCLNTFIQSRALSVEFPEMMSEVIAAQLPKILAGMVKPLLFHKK
Procedure, shortened: (§1)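 Stably transfected SK-N-MC cells express human PR-B or PR-A plus MMTV-LUC. For antagonism they were co-treated with 0.1 nmol/l promegestone and compound (0.01 nmol/l upward) for 24 hours. Luciferase in lysates was read as RLU and reported as % efficacy and IC50.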

[2] = target: T2, human progesterone receptor B (Homo sapiens, UniProt P06401); assay: Progesterone receptor-antagonistic action in stably transfected SK-N-MC cells, MMTV-LUC reporter (PR-B); type: cell-based; conditions: antagonistic potency vs 0.1 nmol/l promegestone, 24 hours
T2 construct: expressed in transfected cells; host or cells: SK-N-MC human neuroblastoma cells, stably transfected with pRChPR-B-neo and pMMTV-LUC
T2 sequence (P06401 1-933): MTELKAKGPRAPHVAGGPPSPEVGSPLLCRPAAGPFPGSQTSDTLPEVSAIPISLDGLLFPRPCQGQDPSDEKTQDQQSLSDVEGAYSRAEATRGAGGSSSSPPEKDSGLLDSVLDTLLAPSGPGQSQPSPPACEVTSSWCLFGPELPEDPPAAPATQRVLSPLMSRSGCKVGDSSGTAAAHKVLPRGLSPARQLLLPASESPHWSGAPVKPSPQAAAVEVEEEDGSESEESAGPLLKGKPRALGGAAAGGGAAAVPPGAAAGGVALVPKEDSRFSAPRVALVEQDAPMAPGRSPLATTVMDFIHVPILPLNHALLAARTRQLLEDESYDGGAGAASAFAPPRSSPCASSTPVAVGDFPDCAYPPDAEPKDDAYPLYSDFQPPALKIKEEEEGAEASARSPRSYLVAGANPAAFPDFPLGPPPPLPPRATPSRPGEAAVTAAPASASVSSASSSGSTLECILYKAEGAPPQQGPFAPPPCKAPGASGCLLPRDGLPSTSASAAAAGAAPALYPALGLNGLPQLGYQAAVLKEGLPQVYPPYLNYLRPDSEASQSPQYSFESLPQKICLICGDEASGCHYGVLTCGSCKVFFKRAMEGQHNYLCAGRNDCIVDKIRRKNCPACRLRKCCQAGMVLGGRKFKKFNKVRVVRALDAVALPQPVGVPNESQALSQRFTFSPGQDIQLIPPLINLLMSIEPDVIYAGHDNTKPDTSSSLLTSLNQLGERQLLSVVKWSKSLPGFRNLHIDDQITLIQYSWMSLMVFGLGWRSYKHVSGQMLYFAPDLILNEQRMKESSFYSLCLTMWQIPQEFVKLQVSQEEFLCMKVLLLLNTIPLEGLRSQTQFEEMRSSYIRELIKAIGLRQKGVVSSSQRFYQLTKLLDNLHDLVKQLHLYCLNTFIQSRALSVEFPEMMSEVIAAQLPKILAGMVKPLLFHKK
Procedure, shortened: as §1

[3] = Metabolic stability in rat liver microsomes; type: in vitro ADME; conditions: calculated from liver microsome clearance
Experimental: (§2) Determination of Metabolic Stability in Human and Rat Liver Microsomes
(§3) The incubations were conducted with 2.4 ml of HLM solution (protein content 0.5 mg/ml), 30 μl of the test compound (final concentration 1 μM) and 0.6 ml of the cofactor mixture (=NADPH-generating system composed of 3 IU glucose-6-phosphate dehydrogenase, 14.6 mg glucose-6-phosphate, 1.2 mg NADP) at 37° C. in 100 mM phosphate buffer at pH 7.4. Samples were taken at 6 time points (2-60 min) and precipitated with an equal volume of methanol, and the recovery of the test substances used in the supernatant was determined by LC-MS/MS analysis. The half-life of substance degradation determined therefrom was used to calculate what is called the intrinsic clearance of the substance in the liver microsome preparation. […] In addition, under the assumptions that (i) absorption of the test substance is 100%, and (ii) the first pass is completely reflected by liver microsome metabolism, a maximum oral bioavailability (Fmax) was calculated.

[4] = Metabolic stability in human liver microsomes; type: in vitro ADME; conditions: calculated from liver microsome clearance
Experimental: as §2
Isolated human liver microsomes (HLM) were used to assess the metabolic stability of compounds of general formula I.
as §3

| IC50 [1] [nM] | IC50 [2] [nM] | Predicted Fmax (maximum oral bioavailability) [3] [%] | Predicted Fmax (maximum oral bioavailability) [4] [%] | SMILES |
| --- | --- | --- | --- | --- |
| 0.095 | 0.11 | 18 | – | C[C@]12C[C@H](c3ccc(CCc4ccccn4)cc3)C3=C4CCC(=O)C=C4CC[C@H]3[C@@H]1CC[C@@]2(O)C(F)(F)C(F)(F)F [Example 2, (8S,11R,13S,14S,17S)-17-hydroxy-13-methyl-17-pentafluoroethyl-11-[4-(2-pyridin-2-ylethyl)phenyl]-1,2,6,7,8,11,12,13,14,15,16,17-dodecahydrocyclopenta[a]phenanthren-3-one] |
| 0.09 | 0.04 | 15 | – | Cc1nc(CCc2ccc([C@H]3C[C@@]4(C)[C@@H](CC[C@@]4(O)C(F)(F)C(F)(F)F)[C@@H]4CCC5=CC(=O)CCC5=C43)cc2)cs1 [Example 3, (8S,11R,13S,14S,17S)-17-hydroxy-13-methyl-11-{4-[2-(2-methylthiazol-4-yl)ethyl]phenyl}-17-pentafluoroethyl-1,2,6,7,8,11,12,13,14,15,16,17-dodecahydrocyclopenta[a]phenanthren-3-one] |
| 0.012 | 0.012 | 52 | 37 | CC1(c2ccc([C@H]3C[C@@]4(C)[C@@H](CC[C@@]4(O)C(F)(F)C(F)(F)F)[C@@H]4CCC5=CC(=O)CCC5=C43)cc2)CC1 [Example 4, (8S,11R,13S,14S,17S)-17-hydroxy-13-methyl-11-[4-(1-methylcyclopropyl)phenyl]-17-pentafluoroethyl-1,2,6,7,8,11,12,13,14,15,16,17-dodecahydrocyclopenta[a]phenanthren-3-one] |
| 0.016 | 0.09 | 52 | 44 | CC(C)(O)c1ccc([C@H]2C[C@@]3(C)[C@@H](CC[C@@]3(O)C(F)(F)C(F)(F)F)[C@@H]3CCC4=CC(=O)CCC4=C32)cc1 [Example 5, (8S,11R,13S,14S,17S)-17-hydroxy-11-[4-(1-hydroxy-1-methylethyl)phenyl]-13-methyl-17-pentafluoroethyl-1,2,6,7,8,11,12,13,14,15,16,17-dodecahydrocyclopenta[a]phenanthren-3-one] |
| 0.08 | 0.09 | 20 | – | C[C@]12C[C@H](c3ccc(CCc4cccnc4)cc3)C3=C4CCC(=O)C=C4CC[C@H]3[C@@H]1CC[C@@]2(O)C(F)(F)C(F)(F)F [Example 7, (8S,11R,13S,14S,17S)-17-hydroxy-13-methyl-17-pentafluoroethyl-11-[4-(2-pyridin-3-ylethyl)phenyl]-1,2,6,7,8,11,12,13,14,15,16,17-dodecahydrocyclopenta[a]phenanthren-3-one] |
| 0.08 | 0.09 | 19 | – | C[C@]12C[C@H](c3ccc(CCc4ccncc4)cc3)C3=C4CCC(=O)C=C4CC[C@H]3[C@@H]1CC[C@@]2(O)C(F)(F)C(F)(F)F [Example 8, (8S,11R,13S,14S,17S)-17-hydroxy-13-methyl-17-pentafluoroethyl-11-[4-(2-pyridin-4-ylethyl)phenyl]-1,2,6,7,8,11,12,13,14,15,16,17-dodecahydrocyclopenta[a]phenanthren-3-one] |
| 0.06 | 0.1 | 4.9 | – | C[C@]12C[C@H](c3ccc(CCC#N)cc3)C3=C4CCC(=O)C=C4CC[C@H]3[C@@H]1CC[C@@]2(O)C(F)(F)C(F)(F)F [Example 9, 3-[4-((8S,11R,13S,14S,17S)-17-hydroxy-13-methyl-3-oxo-17-pentafluoroethyl-2,3,6,7,8,11,12,13,14,15,16,17-dodecahydro-1H-cyclopenta[a]phenanthren-11-yl)phenyl]propionitrile] |
| 0.09 | 0.1 | 59 | 8.5 | CC(CO)(CO)c1ccc([C@H]2C[C@@]3(C)[C@@H](CC[C@@]3(O)C(F)(F)C(F)(F)F)[C@@H]3CCC4=CC(=O)CCC4=C32)cc1 [Example 15A, (8S,11R,13S,14S,17S)-17-hydroxy-11-[4-(2-hydroxy-1-hydroxymethyl-1-methylethyl)phenyl]-13-methyl-17-pentafluoroethyl-1,2,6,7,8,11,12,13,14,15,16,17-dodecahydrocyclopenta[a]phenanthren-3-one] |
| 0.4 | 0.8 | 63 | – | CCNC(=O)NCc1ccc([C@H]2C[C@@]3(C)C(CC[C@@]3(O)C(F)(F)C(F)(F)F)C3CCC4=CC(=O)CCC4=C32)cc1 (stereo partly drawn) [Example 17, 1-ethyl-3-[4-((8S,11R,13S,14S,17S)-17-hydroxy-13-methyl-3-oxo-17-pentafluoroethyl-2,3,6,7,8,11,12,13,14,15,16,17-dodecahydro-M-cyclopenta[a]phenanthren-11-yl)benzyl]urea] |
| 0.3 | 0.8 | 29 | – | C[C@]12C[C@H](c3ccc(CNC(=O)NCc4ccccc4)cc3)C3=C4CCC(=O)C=C4CC[C@H]3[C@@H]1CC[C@@]2(O)C(F)(F)C(F)(F)F [Example 23, 1-benzyl-3-[4-((8S,11R,13S,14S,17S)-17-hydroxy-13-methyl-3-oxo-17-pentafluoroethyl-2,3,6,7,8,11,12,13,14,15,16,17-dodecahydro-1H-cyclopenta[a]phenanthren-11-yl)benzyl]urea] |
| 0.4 | 0.5 | 77 | – | C[C@]12C[C@H](c3ccc(CNC(=O)Nc4ccccc4)cc3)C3=C4CCC(=O)C=C4CC[C@H]3[C@@H]1CC[C@@]2(O)C(F)(F)C(F)(F)F [Example 24, 1-[4-((8S,11R,13S,14S,17S)-17-hydroxy-13-methyl-3-oxo-17-pentafluoroethyl-2,3,6,7,8,11,12,13,14,15,16,17-dodecahydro-1H-cyclopenta[a]phenanthren-11-yl)benzyl]-3-phenyl urea] |
| 0.09 | 0.1 | 49 | – | CCNC(=O)OCc1ccc([C@H]2C[C@@]3(C)[C@@H](CC[C@@]3(O)C(F)(F)C(F)(F)F)[C@@H]3CCC4=CC(=O)CCC4=C32)cc1 [Example 41, ethylcarbamic acid 4-((8S,11R,13S,14S,17S)-17-hydroxy-13-methyl-3-oxo-17-pentafluoroethyl-2,3,6,7,8,11,12,13,14,15,16,17-dodecahydro-1H-cyclopenta[a]phenanthren-11-yl)benzyl ester] |
